EC50 and IC50 data for 27 molecules are collected here from patent US7576094B2, “Spiro derivatives as lipoxygenase inhibitors” (Eli Lilly and Company, priority 2004, dated 2009).

Experiment [1] relates to LTB4 production in human whole blood. In words: Inhibition of LTB4 Production in Blood. The class given is cell-based. The note with it: 1 h, 20 μM A23187, 60 minutes at 37° C., LTB4 in plasma by ELISA, read-out: protection against LTB4 at an EC50. The procedure: • Human whole blood (Na citrate) (Stanford Blood Center) • A23187, (Sigma, Cat# C-7522) • Leukotriene B4 EIA reagents (Cayman Chemical, Cat # 520111) • BWA4C (Sigma, Cat # B7559) Procedure Preparation of A23187:
A23187 was prepared as a 10 mM stock solution in DMSO (aliquots can be stored at −20° C.). On the day of the assay the stock solution was diluted as follows: 70 μL 10 mM stock added to 1.6 mL plasma to give a working concentration of 0.42 mM.
From a 30 mM stock solution in DMSO, test articles were diluted to a working concentration of 600 μM in PBS (i.e. 10 μL stock solution+490 μL PBS). This is the highest concentration (gives a final testing concentration of 30 μM). From this 600 μM solution test articles were serially diluted 1:3 in PBS to give a dose-response curve. 10 μL of each concentration of test article was then added to 4 wells of a 96-well plate (i.e. testing in quadruplicate). A positive control compound, BWA4C was used in every assay.
Human whole blood was added to the plates containing compounds (190 μL per well) and mixed well. The blood was incubated with compound at 37° C. for 15 minutes. Following this incubation, 10 μL of 0.42 mM A23187 was added to each well except the negative control wells to give a final calcium ionophore concentration of 20 μM. The plates were then incubated at 37° C. for 60 minutes. After the incubation period, plates were centrifuged for 15 min at 2000 g at 4° C. in sealed microplate buckets. Plasma was then removed for quantitation of LTB4 levels by ELISA.
LTB4 levels in the plasma were determined using a commercially available ELISA kit from Cayman Chemicals. The ELISA was run according to the manufacturer's instructions. The LTB4 levels in the vehicle control sample were then compared to those in which the test article had been added. From this a percent inhibition of LTB4 production by each concentration of test article was calculated and the IC50 was determined.

Experiment [2] concerns the target T1, human recombinant 5-Lipoxygenase (Homo sapiens, UniProt P09917).
T1 sequence (P09917 1-674): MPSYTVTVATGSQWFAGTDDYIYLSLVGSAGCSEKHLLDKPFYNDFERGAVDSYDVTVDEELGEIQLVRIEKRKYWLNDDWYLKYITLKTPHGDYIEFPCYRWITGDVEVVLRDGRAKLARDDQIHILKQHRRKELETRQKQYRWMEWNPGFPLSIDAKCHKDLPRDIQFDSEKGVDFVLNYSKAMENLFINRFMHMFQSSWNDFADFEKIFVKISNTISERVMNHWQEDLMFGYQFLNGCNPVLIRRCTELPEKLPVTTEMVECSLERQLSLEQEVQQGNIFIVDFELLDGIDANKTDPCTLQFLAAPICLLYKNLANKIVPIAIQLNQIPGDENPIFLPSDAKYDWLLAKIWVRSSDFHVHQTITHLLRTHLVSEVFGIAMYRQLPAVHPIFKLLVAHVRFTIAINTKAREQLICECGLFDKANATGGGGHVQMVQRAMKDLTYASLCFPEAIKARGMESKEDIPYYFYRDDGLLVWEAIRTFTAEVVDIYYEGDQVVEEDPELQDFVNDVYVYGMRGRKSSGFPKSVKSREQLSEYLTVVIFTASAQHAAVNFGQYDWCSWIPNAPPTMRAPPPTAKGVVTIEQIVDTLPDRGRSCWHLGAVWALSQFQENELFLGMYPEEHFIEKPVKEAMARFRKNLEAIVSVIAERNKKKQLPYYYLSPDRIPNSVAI
Description: 5-Lipoxygenase Enzyme Assay. The class given is biochemical. The note with it: 70 μM arachidonic acid, 10 minute incubation at room temperature, FOX reagent, absorbance at 620 nm; read-out: inhibition of 5-Lipoxygenase with an IC50. An excerpt:
This procedure was used for measuring the enzymatic activity of human recombinant 5-Lipoxygenase using a colorimetric method based on the ferric oxidation of xylenol orange.
• 96 well flat bottom microfilter plates (VWR, Catalog # 62402-933 9295) • Lipoxygenase screening assay buffer (Cayman, Catalog # 760710) • Human recombinant 5-Lipoxygenase (Cayman, Catalog # 60402) • Arachidonic Acid (Sigma, Catalog # A3555) • Xylenol orange tetra sodium salt (Aldrich, Catalog # 227854) • Iron (II) sulfate heptahydrate (Sigma, Catalog # F7002) • Sulfuric acid (95-98%) [18 M] • Methanol Procedure
Human recombinant 5-Lipoxygenase (Cayman Cat # 60402) was used in this assay. The test compound and/or vehicle was added to 0.5 μL 5-Lipoxygenase in 50 mM Tris-HCl buffer, pH 7.4. The reaction was initiated by addition of 70 μM arachidonic acid in Tris-HCl buffer, pH 7.4, and terminated after a 10 minute incubation at room temperature by addition of FOX reagent (25 mM sulfuric acid, 100 μM xylenol orange, 100 μM iron (II) sulfate, methanol:water 9:1). The yellow color of acidified xylenol orange was converted to a blue color by the lipid hydroperoxide-mediated oxidation of Fe^2+ ions and the interaction of the resulting Fe^3+ ions with the dye. The complex was allowed to form during a 1 hour incubation at room temperature with shaking. Absorbance of the Fe^3+ complex was then measured at […] using a spectrophotometer.
Negative controls contained enzyme during the incubation step but substrate was not added until after the FOX reagent. Compounds were screened at 5 concentrations in triplicate starting at 10 μM

What is called EC50 is the concentration giving half of the maximal effect. As to `Cc1c(O)c(C)c2c(c1CO)OC1(CCC1)CC2` [8-(hydroxymethyl)-5,7-dimethyl-3,4-dihydrospiro[chromene-2,1′-cyclobutan]-6-ol], in experiment [1], the EC50 is < 10 µM. Same read-out and setting: the value for `CCc1c(O)c(C(C)C)cc2c1C(O)CC1(CCC1)O2` (centres unmarked) [5-ethyl-7-isopropylspiro[chroman-2,1′-cyclobutane]-4,6-diol] was < 10 µM; that for `CONCC1Cc2c(cc(C)c(O)c2C)OC12CCC2` (centres unmarked) [3-[(methoxyamino)methyl]-5,7-dimethyl-3,4-dihydrospiro-[chromene-2,1′-cyclobutan]-6-ol] was < 10 µM. Usually IC50 stands for the concentration at which inhibition is half-maximal. As for `Cc1ccc(S(=O)(=O)NCCN2CC3(CCC3)Cc3cc(O)c(C)c(C)c32)cc1` [N-(2-(6′-hydroxy-7′,8′-dimethyl-2′,4′-dihydro-1′H-spiro[cyclobutane-1,3′-quinoline]-1′-yl)ethyl)-4-methylbenzenesulfonamide], in experiment [2], the IC50 was < 300 nM. In addition, the 50% effective concentration (EC50) in experiment [1] was < 10 µM. With `CCc1cc2c(c(C)c1O)C(NOC)CC1(CCC1)O2` (centres unmarked) [7-ethyl-4-(methoxyamino)-5-methyl-3,4-dihydrospiro[chromene-2,1′-cyclobutan]-6-ol], the IC50 in experiment [2] was < 300 nM. Moreover, the EC50 in experiment [1] is < 10 µM. Consider `Cc1c(O)c(C(C)C)c(CO)c2c1CCC1(CCC1)O2` [8-(hydroxymethyl)-7-isopropyl-5-methylspiro[chroman-2,1′-cyclobutan]-6-ol], for which the IC50 in experiment [2] was < 300 nM. Further, the EC50 in experiment [1] was < 10 µM. With `Cc1cc2c(c(C)c1O)CCC1(CCC1)N2Cc1ccc2ccccc2n1` [5′,7′-dimethyl-1′-(quinolin-2-ylmethyl)-3′,4′-dihydro-1′H-spiro[cyclobutane-1,2′-quinolin]-6′-ol], the IC50 in experiment [2] was < 300 nM. In addition, the EC50 in experiment [1] is < 10 µM.

As for `Cc1c(O)cc2c(c1C)N(c1ccc(O)cc1)C1(CC2)CC1` [1′-(4-hydroxyphenyl)-7′,8′-dimethyl-3′,4′-dihydro-1′H-spiro[cyclopropane-1,2′-quinolin]-6′-ol], the IC50 in experiment [2] is < 300 nM. Further, in experiment [1], the EC50 was < 10 µM. Regarding `Cc1c(C)c2c(c(C)c1O)C(O)C1(CCC1)CO2` (centres unmarked) [5,7,8-trimethylspiro[chroman-3,1′-cyclobutane]-4,6-diol], the IC50 in experiment [2] is < 300 nM. Further, in experiment [1], the EC50 was < 10 µM.

As to `Cc1c(O)cc2c(c1C)N(c1ccc(N(C)C)nc1)CC1(CCC1)C2` [1′-(6-(dimethylamino)pyridin-3-yl)-7′,8′-dimethyl-2′,4′-dihydro-1′H-spiro[cyclobutane-1,3′-quinolin]-6′-ol], the IC50 in experiment [2] is < 300 nM. Also, in experiment [1], the EC50 was < 10 µM. The corresponding values for `Cc1c(O)c(C(C)C)cc2c1[C@H](O)CC1(CCC1)O2` [(R)-7-isopropyl-5-methylspiro[chroman-2,1′-cyclobutane]-4,6-diol] are < 300 nM and < 10 µM. The corresponding values for `CC(C)=CCC/C(C)=C/Cc1c(O)c(C)c(C)c2c1CCC1(CCC1)O2` [5-(3,7-dimethylocta-2,6-dienyl)-7,8-dimethylspiro[chroman-2,1′-cyclobutan]-6-ol] are < 300 nM and < 10 µM. The matching figures for `Cc1c(O)c(C(C)C)cc2c1[C@@H](O)CC1(CCC1)O2` [(S)-7-isopropyl-5-methylspiro[chroman-2,1′-cyclobutane]-4,6-diol]: < 300 nM and < 10 µM.

For `Cc1c(O)cc2c(c1C)N(CCCNC(=O)c1ccccc1)CC1(CCC1)C2` [N-(3-(6′-hydroxy-7′,8′-dimethyl-2′,4′-dihydro-1′H-spiro[cyclobutane-1,3′-quinoline]-1′-yl)propyl)benzamide], the IC50 in experiment [2] was < 300 nM. For the same molecule, the EC50 in experiment [1] was < 10 µM.

For `Cc1cc2c(c(C)c1O)C(N(C)O)CC1(CCC1)O2` (centres unmarked) [4-[hydroxy(methyl)amino]-5,7-dimethyl-3,4-dihydrospiro[chromene-2,1′-cyclobutan]-6-ol], the half-maximal effective concentration (EC50) in experiment [1] is < 10 µM.

On to `CCc1cc2c(c(CC)c1O)[C@@H](O)CC1(CCC1)O2` [(S)-5,7-diethylspiro[chroman-2,1′-cyclobutane]-4,6-diol], for which the half-maximal inhibitory concentration (IC50) in experiment [2] was < 300 nM. The EC50 in experiment [1] is < 10 µM.

Regarding `Cc1c(O)c(C(C)C)cc2c1C(O)CC1(CCC1)O2` (centres unmarked) [7-isopropyl-5-methylspiro[chroman-2,1′-cyclobutane]-4,6-diol], the IC50 in experiment [2] was < 300 nM. The EC50 in experiment [1] is < 10 µM. The matching figures for `CCc1cc2c(c(CC)c1O)[C@H](O)CC1(CCC1)O2` [(R)-5,7-diethylspiro[chroman-2,1′-cyclobutane]-4,6-diol]: < 300 nM and < 10 µM. The matching figures for `COC1CC2(CCC2)Oc2cc(C(C)C)c(O)c(C)c21` (centres unmarked) [7-isopropyl-4-methoxy-5-methylspiro[chroman-2,1′-cyclobutan]-6-ol]: < 300 nM and < 10 µM.

Take `Cc1c(C)c2c(c(C)c1O)C(N(C)O)CC1(CCC1)O2` (centres unmarked) [4-[hydroxy(methyl)amino]-5,7,8-trimethyl-3,4-dihydrospiro[chromene-2,1′-cyclobutan]-6-ol]: the IC50 in experiment [2] was < 300 nM. Besides, in experiment [1], the half-maximal effective concentration (EC50) is < 10 µM. In the case of `Cc1cc2c(c(C)c1O)C=C(c1nc(C)c(C)[nH]1)C1(CCC1)O2` [5,7-dimethyl-3-(-(4,5-dimethyl-1H-imidazol-2-yl)spiro[chromene-2,1′-cyclobutan]-6-ol], in experiment [2], the IC50 is < 300 nM. In addition, in experiment [1], the EC50 was < 10 µM. Regarding `Cc1cc2c(c(C)c1O)C(O)CC1(CCC1)O2` (centres unmarked) [5,7-dimethyl-3,4-dihydrospiro[chromene-2,1′-cyclobutane]-4,6-diol], the EC50 in experiment [1] was < 10 µM. For `CCc1c(O)c(C)cc2c1C(NOC)CC1(CCC1)O2` (centres unmarked) [5-ethyl-4-(methoxyamino)-7-methyl-3,4-dihydrospiro[chromene-2,1′-cyclobutan]-6-ol], in experiment [2], the IC50 was < 300 nM. Also, the EC50 in experiment [1] is < 10 µM. The corresponding values for `CCc1cc2c(c(CC)c1O)CCC1(CCC1)O2` [5,7-diethyl-3,4-dihydrospiro[chromene-2,1′-cyclobutan]-6-ol] are < 300 nM and < 10 µM.

Take `Cc1c(O)c(C(C)C)cc2c1C(O)C1(CCC1)CO2` (centres unmarked) [7-isopropyl-5-methylspiro[chroman-3,1′-cyclobutane]-4,6-diol]: the EC50 in experiment [1] is < 10 µM. With `CONC1CC2(CCC2)Oc2cc(C(C)C)c(O)c(C)c21` (centres unmarked) [7-isopropyl-4-(methoxyamino)-5-methyl-3,4-dihydrospiro[chromene-2,1′-cyclobutan]-6-ol], in experiment [2], the IC50 is < 300 nM. The EC50 in experiment [1] was < 10 µM.

For `Cc1cc2c(c(C)c1O)C(O)C1(CCC1)CO2` (centres unmarked) [5,7-dimethyl-4H-spiro[chromene-3,1′-cyclobutane]-4,6-diol], the EC50 in experiment [1] was < 10 µM.
